Results reported in PubChem BioAssay (NCI).
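1) Cells in 96-well plates. 2) Compound, 48 h, 5 concentrations. 3) Linear interpolation between surrounding doses. 4) Unreached endpoint = highest concentration. The concentration for full growth arrest is given as TGI.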

Key:
Experiment in all cases: inhibition of tumour cell growth, NCI panel, 48 h
[1] = tested on: SF-539 CNS
[2] = tested on: LOX IMVI melanoma
[3] = tested on: SK-MEL-2 melanoma
[4] = tested on: MALME-3M melanoma
[5] = tested on: RXF 393 renal
[6] = tested on: U251 CNS
[7] = tested on: UACC-257 melanoma
[8] = tested on: DMS 273 small cell lung
[9] = tested on: HL-60(TB) leukemia
[10] = tested on: SF-268 CNS
[11] = tested on: SW-620 colon
[12] = tested on: OVCAR-4 ovarian
[13] = tested on: CAKI-1 renal
[14] = tested on: HT29 colon
[15] = tested on: UO-31 renal
[16] = tested on: A498 renal
[17] = tested on: ACHN renal
[18] = tested on: M14 melanoma
[19] = tested on: SK-MEL-28 melanoma
[20] = tested on: HCT-15 colon
[21] = tested on: SNB-75 CNS
[22] = tested on: DMS 114 small cell lung
[23] = tested on: RXF-631 renal
[24] = tested on: SK-OV-3 ovarian
[25] = tested on: NCI-H460 lung
[26] = tested on: KM20L2 colon
[27] = tested on: KM12 colon
[28] = tested on: MOLT-4 leukemia
[29] = tested on: DLD-1 colon
[30] = tested on: NCI-H522 lung
[31] = tested on: LXFL 529 NSCLC
[32] = tested on: EKVX NSCLC
[33] = tested on: SF-295 CNS
[34] = tested on: IGROV1 ovarian
[35] = tested on: COLO 205 colon
[36] = tested on: RPMI-8226 leukemia
[37] = tested on: A549 NSCLC
[38] = tested on: SK-MEL-5 melanoma
[39] = tested on: SNB-78 CNS
[40] = tested on: TK-10 renal
[41] = tested on: CCRF-CEM leukemia
[42] = tested on: 786-0 renal
[43] = tested on: SNB-19 CNS
[44] = tested on: K-562 leukemia
[45] = tested on: XF 498 CNS
[46] = tested on: SN12C renal
[47] = tested on: NCI-H23 lung
[48] = tested on: OVCAR-8 ovarian
[49] = tested on: OVCAR-5 ovarian
[50] = tested on: HCC-2998 colon
[51] = tested on: UACC-62 melanoma

Compound: Cn1c2c([N+](=O)[O-])cccc2c(=O)c2c(O)cc3c(c21)C=CC(C)(C)O3
- TGI [1]: 76.2 µM
- TGI [2]: > 100 µM
- TGI [3]: > 100 µM
- TGI [4]: > 100 µM
- TGI [5]: 62.1 µM
- TGI [6]: > 100 µM
- TGI [7]: > 100 µM
- TGI [8]: > 100 µM
- TGI [9]: > 100 µM
- TGI [10]: > 100 µM
- TGI [11]: > 100 µM
- TGI [12]: 81 µM
- TGI [13]: > 100 µM
- TGI [14]: > 100 µM
- TGI [15]: > 100 µM
- TGI [16]: > 100 µM
- TGI [17]: > 100 µM
- TGI [18]: > 100 µM
- TGI [19]: > 100 µM
- TGI [20]: > 100 µM
- TGI [21]: 84.5 µM
- TGI [22]: > 100 µM
- TGI [23]: > 100 µM
- TGI [24]: > 100 µM
- TGI [25]: > 100 µM
- TGI [26]: > 100 µM
- TGI [27]: > 100 µM
- TGI [28]: > 100 µM
- TGI [29]: > 100 µM
- TGI [30]: 27.8 µM
- TGI [31]: > 100 µM
- TGI [32]: > 100 µM
- TGI [33]: 99.5 µM
- TGI [34]: > 100 µM
- TGI [35]: > 100 µM
- TGI [36]: > 100 µM
- TGI [37]: > 100 µM
- TGI [38]: > 100 µM
- TGI [39]: > 100 µM
- TGI [40]: > 100 µM
- TGI [41]: > 100 µM
- TGI [42]: > 100 µM
- TGI [43]: > 100 µM
- TGI [44]: > 100 µM
- TGI [45]: 45.2 µM
- TGI [46]: > 100 µM
- TGI [47]: > 100 µM
- TGI [48]: > 100 µM
- TGI [49]: > 100 µM
- TGI [50]: > 100 µM
- TGI [51]: > 100 µM
